Assays:
Assay type in all cases: cell-based
3T3-L1 cells [1] = test: Adipocyte differentiation inhibitory effect; details: tested 0.16, 0.31, 0.63, 1.25 μg/ml
Description: To confirm the effect of the Centipeda minima extract for inhibiting non-alcoholic steatohepatitis, an experiment was performed on preadipocytes according to an inflammatory disease treatment agent.
Specifically, the evaluation was performed by using 3T3-L1 cells, which are preadipocytes, and after the 3T3-L1 cells were treated with each of JAKI and elafibranor at concentrations of 0 μg/ml, 0.16 μg/ml, 0.31 μg/ml, 0.63 μg/ml, and 1.25 μg/ml and then cultured for 6 hours under the same conditions, the changes of the 3T3-L1 cells were analyzed.

LX-2 cells = test: Liver fibrosis-related protein expression; details: 40 μM, 24 hours
Description: Specifically, the evaluation was performed by using LX-2 cells, which are hepatic stellate cells. LX-2 cells treated with TGF-P1 at a concentration of 5 ng/ml were treated with JAKI at concentrations of 0 μM, 20 μM, and 40 μM, and then cultured under the same conditions for 24 hours. Thereafter, the protein expression levels of TGF-131, collagen type-1, MMP-2, TIMP1, and GAPDH, and the protein expression ratios of TGF-131, collagen type-1, MMP-2, and TIMP1 compared to GAPDH were analyzed.
Specifically, the evaluation was performed by using LX-2 cells, which are hepatic stellate cells. The LX-2 cells treated with 5 ng/ml TGF-P1 were treated with elafibranor at concentrations of 0 μM, 20 μM, 40 μM, and 80 μM in the control group of the present invention, and the cultured for 24 hours under the same conditions. Then, the protein expression ratios of TGF-131, collagen type-1, MMP-2, and TIMP1 compared to GAPDH were analyzed.

3T3-L1 cells [2] = test: TNF-a induced IL-6 production in preadipocytes; details: 0.16 to 2.5 μg/ml
Description: To confirm the non-alcoholic steatohepatitis inhibitory effect of the Centipeda minima extract, an experiment was performed with INF-a induced IL-6 production in preadipocytes according to an inflammatory disease treatment agent.
(§1) Specifically, the evaluation was performed by using 3T3-L1 cells, which are preadipocytes, and after the 3T3-L1 cells were treated with each of JAKI and elafibranor at concentrations of 0 μg/ml, 0.16 μg/ml, 0.31 μg/ml, 0.63 μg/ml, 1.25 μg/ml, and 2.5 μg/ml and then cultured for 6 hours under the same conditions, the changes of the IL-6 production were analyzed.

3T3-L1 cells [3] = test: TNF-a induced MCP-1 production in preadipocytes; details: 0.16 to 2.5 μg/ml
Description: To confirm the non-alcoholic steatohepatitis inhibitory effect of the Centipeda minima extract, an experiment was performed with TNF-a induced MCP-1 production in preadipocytes according to an inflammatory disease treatment agent.
as §1, with “MCP-1” for “IL-6”

## CSc1ccc(C(=O)/C=C/c2cc(C)c(OC(C)(C)C(=O)O)c(C)c2)cc1 [elafibranor]
3T3-L1 cells [1]
  concentration from which adipocyte differentiation is inhibited: ≥ 0.63 µg/mL
LX-2 cells
  expression ratio of MMP-2 protein compared to GAPDH: decreased
  expression ratio of TGF-β1 protein compared to GAPDH: decreased
  expression ratio of TIMP1 protein compared to GAPDH: decreased
  expression ratio of collagen type-1 protein compared to GAPDH: decreased
3T3-L1 cells [2]
  change in the IL-6 production: no change
3T3-L1 cells [3]
  change in the MCP-1 production: no change
